“Also recorded” adds a separate entry of the source.
Columns and labels:
[1] = tested on: neuronal SNARE-mediated vesicle fusion (t-SNAREs syntaxin HT/SNAP25 and v-SNARE Syb2); experiment: In vitro lipid-mixing (FRET) assay of SNARE-mediated vesicle fusion, v-vesicles with PS; type: biochemical
Text: To address this question, we performed an in vitro lipid-mixing assay using fluorescently labeled proteoliposomes[31],[32]. In this assay, t-SNAREs [complexes of syntaxin Habc-trunctated (HT) (amino acids 168–288 of syntaxin 1A, lacking the Habc domain) and synaptosomal-associated protein-25 (SNAP25)] and v-SNARE Syb2 were incorporated into two different liposomes (t- and v-vesicles, respectively)[15],[31]. When t-vesicles doped with donor dyes (T) and v-vesicles doped with acceptor dyes (V) were fused together through SNARE complex formation[31],[33],[34], the lipids from the two types of vesicles mixed (Fig. 1B). This lipid mixing was monitored by the fluorescence resonance energy transfer (FRET) signal between 1,1′-dioctadecyl-3,3,3′,3′-tetramethylindocarbocyanine perchlorate (DiI) and 1,1′-dioctadecyl3,3,3′,3′-tetramethylindodicarbocyanine perchlorate (DiD) dyes (Supplementary Fig. S1B). α-Syn oligomers were prepared by incubating the α-Syn monomer (15 μM) with dopamine (100 μM) at 37 °C for 72 h (Supplementary Fig. S2A) and purified using size exclusion chromatography (Supplementary Fig. S2B and C)[15],[35]–[37]. We have estimated that the oligomers contain approximately 17 α-Syn monomeric subunits in our previous work[15]. Without the addition of α-Syn oligomers, the T-V mixture presented a significant mixing of lipids (Fig. 1C, the gray line).
We prepared three 30-residue peptides (CFα1, CFα2, and CFα3) that were mainly derived from the C-terminal domain of α-Syn (Anygen, South Korea) (Fig. 5A; Table 1) because the C-terminal domain of α-Syn (a.a. 96–140) is known to bind to the N-terminal domain of Syb2[26]. We confirmed the binding between the peptide and Syb2 using fluorescence anisotropy assay (Supplementary Fig. S8). […]
(§1) t-Vesicles labeled with DiI and v-vesicles labeled with DiD were mixed together to reach a 20 μM lipid concentration. […] We used 532-nm light for excitation and detected the FRET signal (at 690 nm) every 10 s using a temperature-controlled fluorescence spectrophotometer (Cary Eclipse, Agilent) at 37 °C.

[2] = tested on: SNARE-mediated vesicle fusion (v-vesicles without PS); experiment: In vitro lipid-mixing (FRET) assay with v-vesicles prepared with 0% PS; type: biochemical; conditions: v-vesicles 0% PS
Description: Figure 3 α-Syn monomer interactions with the lipid membrane enable cooperative inhibition of vesicle fusion. (A) The effect of the lipid-binding-deficient mutant of the α-Syn monomer (T44P/A89P) on fusion inhibition. v-Vesicles (V) were incubated with the T44P/A89P monomer for 10 min, and then α-Syn oligomers and t-vesicles (T) were added to the premixture. T and V (20 μM lipid concentration) were mixed together at 37 °C without α-Syn (T-V, gray line). […] A control measurement using soluble Syb2 confirmed that lipid mixing was driven by SNARE complex formation (beige line). Bar graphs were obtained from the values at 2000s from the FRET measurements (± SEM, N = 3). *P < 0.05, **P < 0.01, ***P < 0.001 by Student’s t test. (B) The effect of the negatively charged lipid (PS) on fusion inhibition. v-Vesicles (V) prepared with 0% PS were used in the measurement. v-Vesicles without PS were incubated with wild-type α-Syn monomer, and then t-vesicles (T) and oligomers were added to the premixture. […]
as §1

[3] = tested on: Syb2-carrying v-vesicles; experiment: Cryo-EM of v-vesicle clustering
Description: Then, we tested the effect on vesicle clustering. We have proposed that α-Syn oligomers inhibit vesicle fusion by clustering synaptic vesicle mimics in vitro, thereby limiting the number of vesicles available for docking. A few micromolar α-Syn monomer is also known to induce vesicle clustering[27],[29],[30],[38]. Thus, it is possible that the α-Syn monomer by itself cannot induce vesicle clustering at the low concentration (less than 1 μM) that we applied in this work but assists α-Syn oligomers in clustering vesicles. We obtained images of v-vesicles treated with α-Syn oligomers in the presence and absence of monomers using cryo-electron microscopy (cryo-EM) (Fig. 2). The molar ratio of lipid: α-Syn oligomers: α-Syn monomers was 200:1:20. When more than ten vesicles were attached together, we assigned them as a vesicle clustering. In the absence of α-Syn, v-vesicles appeared without clustering (Fig. 2A). […] Cryo-EM could not resolve α-Syn oligomers because of its resolution limit. Since α-Syn oligomers are known to inhibit vesicle fusion through binding to the N-terminal domain of Syb2[15], we tested if their specific interactions with Syb2 are responsible for clustering the vesicles. We reconstituted v-vesicles with Syb2 lacking the N-terminal region (nt-Syb2, amino acids 29–116) and incubated them with α-Syn oligomers. […] While 22.7 ± 1.2 vesicles consisted of a cluster with α-Syn oligomers, 123.5 ± 11.5 vesicles clustered after the addition of α-Syn monomers together with oligomers. […] Although it is difficult to quantify the fraction of the flattened region, this structure was not observed in images of vesicles treated with α-Syn oligomers only (Fig. 2C, enlarged image). The addition of α-Syn monomer with α-Syn oligomers seemed to induce tighter adhesion between the vesicles.
v-Vesicles were incubated with α-Syn (molar ratio of lipid:α-Syn oligomer: monomer = 200:1:20). A 200-mesh carbon grid (Electron Microscopy Sciences) was glow-discharged using the PELCO easiGlow plasma cleaning system (Ted Pella, Inc.). […]

[4] = tested on: α-Syn oligomers and monomers; experiment: Western blot of α-Syn monomer incubated with preformed oligomers; conditions: α-Syn monomer (500 nM) with preformed oligomers (10 nM), no dopamine, 37 °C, 12 h / up to 10 hours (Fig. S4)
Description: We first tested whether the incubation of the α-Syn monomer with oligomers increases the amount of α-Syn oligomers. […] This is consistent with previous work showing that dopamine-modified α-Syn oligomers are not seeding competent.
Purified proteins were subjected to 15% SDS/PAGE and then transferred to polyvinylidene fluoride membranes (Bio-Rad), which were then blocked with 5% (w/v) skim milk in Tris-buffered saline with 0.1% Tween 20 detergent (TBST) (500 mM Tris, pH 8.5; 150 mM NaCl; […]) for 1 h and incubated with α-Syn primary antibody [sc-52979 (Santa Cruz Biotechnology) at a 1:750 dilution factor] for 12 h at 4 °C. The membrane was rinsed with TBST, incubated with anti-mouse IgG peroxidase secondary antibody (Sigma; 1:2500 dilution factor), washed again with TBST, and reacted with chemiluminescent substrate solution (ThermoFisher Scientific, SuperSignal West Pico Chemiluminescent Substrate) for 1 min. Resulting bands were detected using an LAS-4000 instrument (Fujifilm Life Science).
Fig. S4. […] Vesicle compositions are 73% PC, 20% cholesterol, and 7% PS. α-Syn monomers (500 nM) were incubated with the purified dopamine-induced oligomers (10 nM) at 37 ℃ for up to 10 hours and then the mixtures were applied to the Western blot analysis and probed with anti–α-Syn antibody. […] The image was edited by Adobe Illustrator CS6 (Adobe).

[5] = tested on: SNARE-mediated vesicle docking; conditions: nonaggregated α-Syn monomer, 10 μM; ref [42]; cited from earlier work
Text: For the molecular mechanism of the inhibition, we proposed that α-Syn oligomers interfere with vesicle docking by clustering vesicles. […] Nonaggregated α-Syn or its monomer uses its interaction with Syb2 to help SNARE complex assembly[26] and induces the clustering of vesicles or Syb2, which promotes SNARE complex formation[25],[30]. […] All the functions of the α-Syn monomer are beneficial for neurotransmitter release.

## α-synuclein [α-Syn monomer]
[1]; 10 nM α-Syn oligomers + 850 nM α-Syn monomer, monomer pre-incubated with V 10 min, 37 °C, at 1800 s, N = 3
  fusion efficiency (relative lipid mixing): 25%
[1]; wild-type α-Syn monomer together with 10 nM α-Syn oligomers, 37 °C
  effect on fusion inhibition by oligomers: more severe inhibition of vesicle fusion between T and V was observed as the concentration of α-Syn monomer increased; also recorded: the FRET signal was lower than that of the α-Syn oligomer-treated vesicle fusion
[1]; α-Syn monomer alone, 200–850 nM, 10 min incubation with v-vesicles, N = 3
  effect on lipid mixing: negligible effect on lipid mixing; also recorded: no effect on SNARE-mediated lipid mixing; also recorded: negligible effect on SNARE-mediated vesicle fusion
[2]; 2 μM wild-type α-Syn monomer with α-Syn oligomers, 37 °C, at 2000 s, N = 3
  recovery of SNARE-mediated lipid mixing: ~100%
[2]; wild-type α-Syn monomer (200 nM to 2 μM) with α-Syn oligomers
  effect on fusion inhibition by oligomers: the FRET signal increased; also recorded: attenuated
[3]; α-Syn monomer alone, lipid:monomer 10:1 (5 μM:0.5 μM)
  clustering of v-vesicles: no clustering of v-vesicles was observed
[3]; α-Syn monomer and oligomers, lipid:oligomers:monomers 200:1:20
  clustering of v-vesicles: they formed larger clusters; also recorded: The vesicle cluster was significantly larger than that observed in (C)
[3]; α-Syn monomers together with oligomers, lipid:oligomers:monomers 200:1:20
  number of vesicles per cluster: 123.5 ± 11.5 vesicles
[4]
  change in amounts of oligomers and monomers: No change in the intensities of the oligomers, multimers, and monomer was observed; also recorded: no change in the amounts of oligomers and monomers was observed
[5]
  effect on SNARE-dependent vesicle docking: beneficial for SNARE-dependent vesicle docking

From article PMC8155056, “Cooperative inhibition of SNARE-mediated vesicle fusion by α-synuclein monomers and oligomers” (Scientific Reports, 2021)
